The species entered for one data set is Bos taurus. In words: Inhibition of bovine brain tubulin polymerization preincubated for 15 mins followed by GTP addition and measured for 30 mins by spectrophotometric method.
The test system of a further data set is KB 3-1. As to the kind of experiment: Antiproliferative activity against human KB-31 cells incubated for 96 hrs by spectrophotometric method. Type of data set: functional, cell-based. The following applies: KB 3-1, 96 h.
A short description of data set [1]: Antiproliferative activity against human KB-8511 cells incubated for 96 hrs by spectrophotometric method. Type of data set: functional, cell-based. The settings on record: KB-ChR-8-5-11, 96 h.
A short description of data set [2]: Inhibition of calf brain tubulin by turbidimetry. The arrangement: species or system Bos taurus.
In data set [3] the target is T1, carboxylesterase 1 (CES1) (Homo sapiens, UniProt P23141).
T1 sequence (P23141 whole entry): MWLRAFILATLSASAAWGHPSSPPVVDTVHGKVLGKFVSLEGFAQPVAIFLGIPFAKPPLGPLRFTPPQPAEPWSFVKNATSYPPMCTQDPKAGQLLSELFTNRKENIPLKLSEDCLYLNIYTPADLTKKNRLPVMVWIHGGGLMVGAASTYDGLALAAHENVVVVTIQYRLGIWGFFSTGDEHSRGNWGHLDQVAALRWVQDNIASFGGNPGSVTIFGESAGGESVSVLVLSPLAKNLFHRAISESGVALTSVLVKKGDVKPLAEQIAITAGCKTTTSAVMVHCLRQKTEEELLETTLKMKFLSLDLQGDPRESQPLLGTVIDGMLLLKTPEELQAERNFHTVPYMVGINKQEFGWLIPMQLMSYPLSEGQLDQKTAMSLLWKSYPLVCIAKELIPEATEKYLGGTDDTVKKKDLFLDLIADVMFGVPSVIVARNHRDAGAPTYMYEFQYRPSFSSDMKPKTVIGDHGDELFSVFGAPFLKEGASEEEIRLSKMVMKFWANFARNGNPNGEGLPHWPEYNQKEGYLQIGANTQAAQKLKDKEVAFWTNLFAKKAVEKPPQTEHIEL
In words: Substrate activity at human carboxylesterase 1 expressed in baculovirus infected Sf9 insect cells assessed as enzyme-catalysed compound cleavage incubated for 2 hrs by HPLC analysis. Type of data set: ADME. The following applies: read-out: Activity.

A further data set relates to HeLa. In words: Cytotoxicity against human HeLa cells after 24 to 72 hrs by Cell Titer Blue assay. Type of data set: cell-based.
Another data set has as its system A2780. As to the kind of experiment: Cytotoxicity against human A2780 cells. Type of data set: functional, cell-based.
The subject of another data set is Bel-7402. In words: Cytotoxicity against human BEL7402 cells. Type of data set: functional, cell-based.
The next data set has as its system A549. As to the kind of experiment: Cytotoxicity against human A549 cells. Format: functional, cell-based.
In the next data set the test system is MCF7. As to the kind of experiment: Cytotoxicity against human MCF7 cells. Format: functional, cell-based.

Each structure is given as a SMILES string.

A word on the inhibition: it is the relative decrease from the control value, in per cent. Lower therefore signals a weak effect. Usually IC50 stands for the concentration needed to halve the response being measured. A higher IC50 goes with weaker potency in that assay. Regarding `COc1c(CNC(C)=O)c2c(c(OC)c1OC)-c1ccc(OC)c(=O)cc1[C@@H](NC(C)=O)CC2`, the inhibition in the data set listed under Bos taurus worked out at 0%. In addition, the IC50 (in the data set with KB 3-1; in data set [1]) was over 1000 nM each time.

Compound `COc1ccc2c(c1)/C(=N\O)CCc1cc(OC)c(OC)c(OC)c1-2` gave a half-inhibitory concentration (IC50) in data set [2] of 330 nM. This counts as sub-micromolar.

`COc1ccc2c(c1)-c1nc(N)ncc1Cc1cc(OC)c(OC)c(OC)c1-2` registered a 50% inhibitory concentration (IC50) in [2] of 670 nM. Compared with the last compound, the IC50 is about 2-fold higher.

In [2], `COc1ccc2c(c1)C(=O)CCc1cc(OC)c(OC)c(OC)c1-2` returned a concentration for half-maximal inhibition (IC50) of 430 nM.

Compound `COc1ccc2c(c1)-c1n[nH]cc1Cc1cc(OC)c(OC)c(OC)c1-2` gave an IC50 in [2] of 470 nM.

Compound `COc1c(COC(C)=O)c2c(c(OC)c1OC)-c1ccc(OC)c(=O)cc1[C@@H](NC(C)=O)CC2` displayed an inhibition in the data set filed under Bos taurus of 100%. Besides, the IC50 (with KB 3-1; in data set [1]) was over 1000 nM in each case.

For the compound `COc1cc2c(c(OC)c1OC)-c1ccc(NCCCCCC(=O)N[C@@H](CC(C)C)C(=O)OC3CCCC3)c(=O)cc1[C@@H](NC(C)=O)CC2`, the metabolised at 2 h in data set [3] was 36%. In addition, half-maximal inhibition with HeLa (IC50) was put at 4620 nM.

For `COc1c(CNC(=O)c2ccccc2)c2c(c(OC)c1OC)-c1ccc(OC)c(=O)cc1[C@@H](NC(C)=O)CC2`, the inhibition in the data set filed under Bos taurus was 0%. For the same compound, the IC50 (with KB 3-1; in [1]) was over 1000 nM in each case.

In turn, `CCOC(=O)NCc1c2c(c(OC)c(OC)c1OC)-c1ccc(OC)c(=O)cc1[C@@H](NC(C)=O)CC2` gave an inhibition in the data set listed under Bos taurus of 0%. Also, the IC50 (in the data set with KB 3-1; in [1]) was over 1000 nM throughout.

In the case of `COc1cc2c(c(OC)c1OC)-c1cc(NC(=O)c3ccc(CN[C@@H](CC(C)C)C(=O)OC4CCCC4)cc3)ccc1[C@@H](NC(C)=O)CC2`, the metabolised at 2 h in data set [3] came to 33%. Further, the IC50 with HeLa amounted to 1480 nM.

On to `COc1cc2c(c(OC)c1OC)-c1ccc(NCCCCCCCC(=O)N[C@@H](CC(C)C)C(=O)OC3CCCC3)c(=O)cc1[C@@H](NC(C)=O)CC2`, for which the metabolised at 2 h in [3] is 76%. For the same compound, in the data set on HeLa, the IC50 was found to be 4930 nM.

As for `COc1cc2c(c(OC)c1OC)-c1ccc(NCCOC(=O)CCC(=O)OCCO[N+](=O)[O-])c(=O)cc1[C@@H](NC(C)=O)CC2`, the IC50 was 20 nM with A2780, 40 nM with Bel-7402, 40 nM in the data set with A549 and 40 nM with MCF7.

Take `COc1cc2c(c(OC)c1OC)-c1ccc(NCCCC(=O)N[C@@H](CC(C)C)C(=O)OC3CCCC3)c(=O)cc1[C@@H](NC(C)=O)CC2`: in data set [3], the metabolised at 2 h worked out at 18%. It took 1190 nM to reach half-maximal inhibition in the data set on HeLa (IC50).

Compound `COc1ccc2c(c1)N(C(C)=O)CCCc1cc(OC)c(OC)c(OC)c1-2` showed an IC50 in [2] of 2300 nM. This lies in the single-digit micromolar range.

Take `COc1cc2c(c(OC)c1OC)-c1ccc(NCCC(O)C(=O)N[C@H](C(=O)OC3CCCC3)c3ccccc3)c(=O)cc1[C@@H](NC(C)=O)CC2` (stereo partly specified): the metabolised at 2 h in data set [3] stood at 0%. In the data set on HeLa, this compound gave a concentration for half-maximal inhibition (IC50) of 220 nM.

With `COc1cc2c(c(OC)c1OC)-c1ccc(NCCCC(=O)N[C@H](C(=O)OC3CCCC3)c3ccccc3)c(=O)cc1[C@@H](NC(C)=O)CC2`, in data set [3], the metabolised at 2 h is 0%. In the data set on HeLa, this compound registered an IC50 of 1240 nM.

Regarding `COc1cc2c(c(OC)c1OC)-c1ccc(NCCOC(=O)CCC(=O)Oc3ccc(CO[N+](=O)[O-])cc3)c(=O)cc1[C@@H](NC(C)=O)CC2`, the IC50 was determined as 20 nM in the data set on A2780, 17 nM in the data set with Bel-7402, 17 nM with A549 and 17 nM in the data set on MCF7.

On to `COc1ccc2c(c1)NC(=O)CCc1cc(OC)c(OC)c(OC)c1-2`, for which inhibition in data set [2] was half-maximal at 21000 nM (IC50).

As to `COc1cc2c(c(OC)c1OC)-c1ccc(NCCC(O)C(=O)N[C@@H](CC(C)C)C(=O)OC3CCCC3)c(=O)cc1[C@@H](NC(C)=O)CC2` (stereo partly specified), the metabolised at 2 h in [3] was determined as 13%. This compound also registered an IC50 with HeLa of 230 nM.

In the case of `COc1cc2c(c(OC)c1OC)-c1ccc(NCCOC(=O)CCC(=O)OCCCCCCO[N+](=O)[O-])c(=O)cc1[C@@H](NC(C)=O)CC2`, the IC50 in the data set on A2780 worked out at 20 nM; in the data set with Bel-7402, 40 nM; in the data set with A549, 40 nM; in the data set with MCF7 it was 40 nM.

In the data set filed under Bos taurus, `COc1c(CO)c2c(c(OC)c1OC)-c1ccc(OC)c(=O)cc1[C@@H](NC(C)=O)CC2` displayed an inhibition of 100%. Besides, the IC50 in data set [1] is over 1000 nM.

These data come from ChEMBL document CHEMBL4665675 (J Med Chem, 2020).
